The text below walks through data of PubChem BioAssay AID330 (DTP/NCI, 2004).

This assay deals with P388 leukemia ip, CD2F1 mice, survival T/C. The experiment in a line: NCI In Vivo Anticancer Drug Screen. Data for tumor model P388 Leukemia (intraperitoneal) in CD2F1 (CDF1) mice. The conditions noted are these: endpoint: median survival time, higher = longer survival. The procedure, abridged:
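Mice carrying the transplanted tumor received test compound or vehicle. Survival was recorded in each group, and the value is the treated-group measurement divided by that of the vehicle-treated control group.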

Where [1] appears, read: dose: 50.0 mg/kg/injection, schedule: Q01DX009 (ip), vehicle: saline.
Setting [2] is: dose: 50.0 mg/kg/injection, schedule: Q01DX009 (ip), vehicle: saline with Tween-80.
[3] abbreviates: dose: 100.0 mg/kg/injection, schedule: Q01DX009 (ip), vehicle: saline with Tween-80.
The mark [4] stands for this setting: dose: 200.0 mg/kg/injection, schedule: Q01DX009 (ip), vehicle: saline with Tween-80.
[5] abbreviates: dose: 60.0 mg/kg/injection, schedule: Q01DX005 (ip), vehicle: saline with Tween-80.
Where [6] appears, read: dose: 120.0 mg/kg/injection, schedule: Q01DX005 (ip), vehicle: saline with Tween-80.
Setting [7] is: dose: 25.0 mg/kg/injection, schedule: Q04DX003 (ip), vehicle: saline.
Setting [8] is: dose: 50.0 mg/kg/injection, schedule: Q04DX003 (ip), vehicle: saline.

Molecules are shown by their SMILES. Where “and” joins values, the source holds several entries; their conditions need not be identical. Identical values can stand only once. Toxic doses and inconclusive results are not listed.

On to `COc1cc(C=C2C(=O)C=CC2=O)ccc1OCc1ccccc1`, for which the T/C by setting is: (dose: 2.5 mg/kg/injection, schedule: Q04DX002 (ip), vehicle: saline with Tween-80) 102 % of control; (dose: 5.0 mg/kg/injection, schedule: Q04DX002 (ip), vehicle: saline with Tween-80) 113 % of control; (dose: 10.0 mg/kg/injection, schedule: Q04DX002 (ip), vehicle: saline with Tween-80) 107 % of control; (dose: 25.0 mg/kg/injection, schedule: Q04DX002 (ip), vehicle: saline with Tween-80) 111 % of control.
In the case of `S=P(C1CCCCC1)(C1CCCCC1)C(c1cccnc1)N1CCCC1` (stereo not drawn), the T/C under setting [1] is 104 % of control; the T/C (dose: 100.0 mg/kg/injection, schedule: Q01DX009 (ip), vehicle: saline) is 94 % of control; the T/C (dose: 200.0 mg/kg/injection, schedule: Q01DX009 (ip), vehicle: saline) is 87 % of control.
For the compound `O=N[O-].O=N[O-].O=N[O-].[Co+3].[NH-]CC[N-]CC[NH-]`, the T/C runs as follows: (dose: 12.5 mg/kg/injection, schedule: Q01DX009 (ip), vehicle: saline with Tween-80) 95 % of control; (dose: 25.0 mg/kg/injection, schedule: Q01DX009 (ip), vehicle: saline with Tween-80) 104 % of control; under setting [2], 114 % of control.
Regarding `CN(C)c1ccc(/C=N/NC(=O)C(=O)NCc2ccco2)cc1`, the T/C was 94 % of control under setting [2], 86 % of control under setting [3] and 91 % of control under setting [4].
Turning to `O=C1OC(C(O)CO)C(=N\Nc2ccc(Cl)cc2)/C1=N/Nc1ccccc1` (stereo not drawn), the T/C (dose: 100.0 mg/kg/injection, schedule: Q01DX001 (ip), vehicle: Klucel (hydroxypropylcellulose) (HPC)) was 103 % of control; the T/C (dose: 200.0 mg/kg/injection, schedule: Q01DX001 (ip), vehicle: Klucel (hydroxypropylcellulose) (HPC)) was 103 % of control; the T/C (dose: 400.0 mg/kg/injection, schedule: Q01DX001 (ip), vehicle: Klucel (hydroxypropylcellulose) (HPC)) was 110 % of control.
As for `COc1cc(-c2ccc(Nc3ccccc3C(=O)O)c(OC)c2)ccc1N`, the T/C is, setting by setting: (dose: 50.0 mg/kg/injection, schedule: Q04DX003 (ip), vehicle: saline with Tween-80) 110 % of control; (dose: 100.0 mg/kg/injection, schedule: Q04DX003 (ip), vehicle: saline with Tween-80) 150 % of control; (dose: 132.0 mg/kg/injection, schedule: Q04DX003 (ip), vehicle: saline with Tween-80) 104 % of control.
`CCOC1(NC(=O)N(C)C)C2CCCC21` (stereo not drawn): the T/C was 97 % of control (dose: 25.0 mg/kg/injection, schedule: Q01DX009 (ip), vehicle: Klucel (hydroxypropylcellulose) (HPC)); 97 % of control (dose: 50.0 mg/kg/injection, schedule: Q01DX009 (ip), vehicle: Klucel (hydroxypropylcellulose) (HPC)); 94 % of control (dose: 100.0 mg/kg/injection, schedule: Q01DX009 (ip), vehicle: Klucel (hydroxypropylcellulose) (HPC)).
Consider `COc1cc2c(c(OC)c1OC)-c1ccc(SC)c(=O)cc1[C@@H](NC1OCC(O)C(O)C1O)CC2` (stereo partly drawn), for which the T/C is 105 % of control (dose: 1.5 mg/kg/injection, schedule: Q01DX009 (ip), vehicle: water); 117 % of control (dose: 3.0 mg/kg/injection, schedule: Q01DX009 (ip), vehicle: water); 113 % of control (dose: 6.0 mg/kg/injection, schedule: Q01DX009 (ip), vehicle: water); 121 % of control (dose: 12.0 mg/kg/injection, schedule: Q01DX009 (ip), vehicle: water); 152 % of control (dose: 24.0 mg/kg/injection, schedule: Q01DX009 (ip), vehicle: other); 123 % of control (dose: 24.0 mg/kg/injection, schedule: Q01DX009 (ip), vehicle: water). The T/C (dose: 48.0 mg/kg/injection, schedule: Q01DX009 (ip), vehicle: other) is 155 % of control.
As to `O=c1[nH]c(CN2CCOCC2)ncc1C1CCCCC1`, the T/C runs as follows: under setting [2], 97 % of control; under setting [3], 100 % of control; under setting [4], 95 % of control.
For `c1ccc(/C(=N\Nc2nc3ccccc3s2)c2ccccn2)cc1`, the T/C is 104 % of control (dose: 50.0 mg/kg/injection, schedule: Q01DX005 (ip), vehicle: saline with Tween-80); 109 % of control (dose: 100.0 mg/kg/injection, schedule: Q01DX005 (ip), vehicle: saline with Tween-80); 95 % of control (dose: 200.0 mg/kg/injection, schedule: Q01DX005 (ip), vehicle: saline with Tween-80).
For `CCCCCCCCN1CCOCCOCCN(CCCCCCCC)c2nc(Cl)nc(n2)NCCOCCOCCNc2nc(Cl)nc1n2`, the T/C is 98 % of control under setting [5] and 93 % of control under setting [6].
For the compound `C=C1CC/C=C(\C)C(=O)C[C@@H]2[C@@H]1CC2(C)C`, the T/C is 106 % of control (dose: 0.37 mg/kg/injection, schedule: Q01DX009 (ip), vehicle: saline + alcohol); 108 % of control (dose: 0.75 mg/kg/injection, schedule: Q01DX009 (ip), vehicle: saline + alcohol); 106 % of control (dose: 1.5 mg/kg/injection, schedule: Q01DX009 (ip), vehicle: saline + alcohol); 94 % of control (dose: 3.0 mg/kg/injection, schedule: Q01DX009 (ip), vehicle: saline + alcohol); 98 % of control (dose: 6.0 mg/kg/injection, schedule: Q01DX009 (ip), vehicle: saline + alcohol).
Regarding `Cc1cc2c(=O)cc(-c3ccc([N+](=O)[O-])cc3)oc2c(C#N)c1C`, the T/C reads like this: (dose: 60.0 mg/kg/injection, schedule: Q01DX005 (ip), vehicle: Klucel (hydroxypropylcellulose) (HPC)) 92 % of control; (dose: 120.0 mg/kg/injection, schedule: Q01DX005 (ip), vehicle: Klucel (hydroxypropylcellulose) (HPC)) 94 % of control; (dose: 240.0 mg/kg/injection, schedule: Q01DX005 (ip), vehicle: Klucel (hydroxypropylcellulose) (HPC)) 87 % of control.
On to `CCCCCCOCC(=O)OC`, for which the T/C under setting [2] was 103 % of control, the T/C under setting [3] is 102 % of control and the T/C under setting [4] was 102 % of control.
As for `CN(C)C1CC2CCCCC2CC1O` (stereo not drawn), the T/C was 93 % of control under setting [7]; 99 % of control under setting [8]; 104 % of control (dose: 100.0 mg/kg/injection, schedule: Q01DX001 (ip), vehicle: saline); 103 % of control (dose: 100.0 mg/kg/injection, schedule: Q04DX003 (ip), vehicle: saline); 98 % of control (dose: 200.0 mg/kg/injection, schedule: Q01DX001 (ip), vehicle: saline).
With `Cc1ncccc1[N+](=O)[O-]`, the T/C by setting is: (dose: 12.5 mg/kg/injection, schedule: Q01DX009 (ip), vehicle: saline + Tween-80 + alcohol) 100 % of control; (dose: 25.0 mg/kg/injection, schedule: Q01DX009 (ip), vehicle: saline + Tween-80 + alcohol) 100 % of control; (dose: 50.0 mg/kg/injection, schedule: Q01DX009 (ip), vehicle: saline + Tween-80 + alcohol) 106 % of control and 93 % of control.
For the compound `c1cc2cc(-c3ccc4cc(C5=NCCN5)[nH]c4c3)[nH]c2cc1C1=NCCN1`, the T/C is 108 % of control under setting [7]; 116 % of control under setting [8]; 184 % of control (dose: 200.0 mg/kg/injection, schedule: Q04DX003 (ip), vehicle: saline).
Consider `COc1ccc(S(=O)(=O)F)cc1NC(=O)Oc1ccccc1`, for which the T/C was 105 % of control under setting [5]; 113 % of control under setting [6]; 111 % of control (dose: 240.0 mg/kg/injection, schedule: Q01DX005 (ip), vehicle: saline with Tween-80).
Regarding `NC1(c2ccccc2)CCCCC1`, the T/C by setting is: (dose: 12.5 mg/kg/injection, schedule: Q01DX009 (ip), vehicle: saline) 99 % of control; (dose: 25.0 mg/kg/injection, schedule: Q01DX009 (ip), vehicle: saline) 106 % of control; under setting [1], 105 % of control.
Turning to `COC(=O)/C1=C\CC/C(C(=O)OC)=C\C(=O)CCC1`, the T/C is, setting by setting: (dose: 25.0 mg/kg/injection, schedule: Q01DX005 (ip), vehicle: Klucel (hydroxypropylcellulose) (HPC)) 101 % of control; (dose: 50.0 mg/kg/injection, schedule: Q01DX005 (ip), vehicle: Klucel (hydroxypropylcellulose) (HPC)) 101 % of control; (dose: 100.0 mg/kg/injection, schedule: Q01DX005 (ip), vehicle: Klucel (hydroxypropylcellulose) (HPC)) 103 % of control.
Take `Cc1ccc(-c2cc(C(=O)NN)c(C#N)c(=O)[nH]2)cc1`: the T/C by setting is: (dose: 60.0 mg/kg/injection, schedule: Q01DX005 (ip), vehicle: suspension in saline) 97 % of control; (dose: 120.0 mg/kg/injection, schedule: Q01DX005 (ip), vehicle: suspension in saline) 100 % of control; (dose: 240.0 mg/kg/injection, schedule: Q01DX005 (ip), vehicle: suspension in saline) 100 % of control.
For the compound `CC(C)(C)c1cc(O)cc(C(=O)O)c1O`, the T/C runs as follows: under setting [2], 101 % of control; under setting [3], 100 % of control.
